Test [1] concerns carrageenan induced acute inflammatory pain in rats. The test is described as follows: carrageenan induced acute inflammatory pain (paw pressure test). Type of test: in vivo. Particulars: for ED50: Rattus norvegicus, 0.25 h, acute pain, 15 min p. appl.; for time at which the peak effect was reached: p. appl., timepoint of first measurement. The source says: (§1) The weight ratios of the components (a) and (b) that will lead to a supra-additive effect (synergistic effect) of the inventive pharmaceutical composition may be determined via the paw pressure test of Randall and Selitto as described in Arch. Int. Pharmacodyn., 1957, 111: 409 to 419, which is a model for inflammatory pain. The respective part of the literature is hereby incorporated by reference and forms part of the present disclosure. Accordingly, the weight ratios of the components (a) and (b) that will lead to a supra-additive effect (synergistic effect) of the inventive pharmaceutical composition were determined in a model of acute pain (A) and a model of chronic pain (B).
Acute inflammation was induced by injection of a 0.1 ml carrageenan solution (0.5% in distilled water) subcutaneously into the plantar surface of the right hind paw of the rat. The mechanical nociceptive threshold was measured using an Algesiometer (Ugo Basile, Italy). The device generates a mechanical force with a linear increase over time. The force was applied to the dorsal surface of the inflamed hind paw via a cone-shaped stylus with a rounded tip (3 mm^2). The nociceptive threshold (Tv) was defined as the force at which the rat vocalises (cut-off force 450 g). Compounds or vehicle were given 3 h after carrageenan injection. The mechanical nociceptive threshold was measured at different times after the drug or vehicle administration. The drug effects are expressed as percentages of the maximal possible effect (MPE) based on the following formula: %MPE=(Tv drug−Tv control)/(cut-off−Tv control)×100. The group size is n=12.
(§2) The analysis of the results with respect to a supra-additive effect of the inventive pharmaceutical composition comprising the components (a) and (b) was carried out via statistical comparison of the theoretical additive ED50-value with the experimentally determined ED50-value of a so-called fixed ratio combination (isobolographic analysis according to Tallarida J T, Porreca F, and Cowan A. Statistical analysis of drug-drug and site-site interactions with isobolograms. Life Sci. 1989; 45: 947-961). The interactions studies presented herein were performed using equieffective doses of the two components, calculated from the ratio of the respective ED50 values of the components if administered alone.

For test [2], the system named is CFA induced chronic inflammatory pain in rats. The test is described as follows: Complete Freund Adjuvant (CFA) induced chronic inflammatory pain (paw pressure test). Type of test: in vivo. To be noted: for ED50: Rattus norvegicus, ip, 0.25 h, chronic pain, 15 min p. appl.; for time at which the peak effect was reached: p. appl., timepoint of first measurement.
Source text: as §1
Chronic inflammation was induced by an intraplantar injection of 0.05 mL of a CFA solution (Mycobacterium tuberculosis, H37 Ra, Difco Laboratories, Detroit, Mich., U.S.A.; 1 mg/mL in mineral oil) into one hind paw. The mechanical nociceptive threshold is measured before (prevalue) and one day after CFA injection using an Algesiometer (Ugo Basile, Italy). The device generates a mechanical force with a linear increase over time. The force is applied to the dorsal surface of the inflamed rat hind paw via a cone-shaped stylus with a rounded tip (2 mm tip diameter). The nociceptive threshold is defined as the force (in grams) at which the rat vocalises (cut-off force 450 g). The mechanical nociceptive threshold is measured at different timepoints after the drug or vehicle administration. The antinociceptive and antihyperalgesic activity of the tested substance is expressed as percentages of the maximal possible effect (%MPE). The maximal possible effect is defined as the percentage of prevalue withdrawal treshold before CFA-injection. The group size is n=10.
as §2

For test [3] the following is noted: clinical studies, compared with morphine; cited from earlier work.
Test [4] relates to diabetic hyperalgesia in male C57/BL/6 mice. The test is described as follows: streptozotocin-induced diabetic heat hyperalgesia, hot plate 50 °C. Type of test: in vivo.
In test [5] the target is recombinantly produced μ-opioid receptor (Homo sapiens, UniProt P35372). To be noted: compared with morphine; cited from earlier work.
Sequence of recombinantly produced μ-opioid receptor (P35372 whole entry): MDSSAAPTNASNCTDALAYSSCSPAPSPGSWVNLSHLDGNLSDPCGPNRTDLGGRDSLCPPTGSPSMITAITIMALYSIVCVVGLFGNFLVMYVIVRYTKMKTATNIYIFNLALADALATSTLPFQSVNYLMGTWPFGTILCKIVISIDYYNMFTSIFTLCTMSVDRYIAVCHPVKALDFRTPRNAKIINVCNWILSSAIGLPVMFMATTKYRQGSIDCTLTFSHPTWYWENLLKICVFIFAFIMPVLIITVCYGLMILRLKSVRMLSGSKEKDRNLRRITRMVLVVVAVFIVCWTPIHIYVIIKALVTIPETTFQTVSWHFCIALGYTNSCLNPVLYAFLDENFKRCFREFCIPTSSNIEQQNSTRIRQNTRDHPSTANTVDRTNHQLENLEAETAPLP

Where a name gives a salt, the structure may show the parent alone.

One may read the ED50 as the dose that gives a 50% effect, or the effect in half of the subjects. For `CCN(CC)CC(=O)Nc1c(C)cccc1C` [Lidocaine, lidocaine hydrochloride], the ED50 in test [1] (ip) was determined as 32.4 mg/kg; in test [2], 26.8 mg/kg. Also, the “time at which the peak effect was reached” value in test [1] and in test [2] was 15 min each time.
For the compound `CC[C@@H](c1cccc(O)c1)[C@@H](C)CN(C)C` [tapentadol, (1 R,2R)-3-(3-dimethylamino-1-ethyl-2-methyl-propyl)-phenol], the ED50 in test [1] (iv) worked out at 1.75 mg/kg; in test [2], 6.34 mg/kg. For the same compound, the “time at which the peak effect was reached” value in test [1] and in test [2] was 15 min each time. Also, the “pain-alleviating action relative to morphine” value in test [3] is “two to three times less”. The “combined intrathecal and intracerebroventricular ED 50 compared to theoretical additive effects” value in test [4] (FIG. 7, p <0.001) is listed as “synergistically better”. For the same compound, the ED-50 is recorded as 0.053 (0.032-0.074) mg/animal in test [4] (combination of intrathecal and intracerebroventricular administration, threshold values after 15 minutes); 0.18 (0.14-0.22) mg/animal in test [4] (intracerebroventricular administration, thermal hyperalgesia threshold values after 15 minutes); 0.42 (0.26-0.58) mg/animal in test [4] (intrathecal administration, thermal hyperalgesia threshold values after 15 minutes). The “inhibition of diabetic heat hyperalgesia” value in test [4] (intracerebroventricular, 0.1, 0.3 and 1.00 μg (FIGS. 3 and 4)) is reported as “dose-dependent inhibition”; in test [4] (intrathecal plus intracerebroventricular, simultaneously (FIGS. 5 and 6)) it was “dose-dependent inhibition”; in test [4] (intrathecal, 0.316, 1.00 and 3.16 μg (FIGS. 1 and 2)), “dose-dependent inhibition”. For the same compound, in test [5], the “affinity to the recombinantly produced μ-opioid receptor relative to morphine” value was 18 times less.

(Values after US20200215003A1, “PARENTERAL ADMINISTRATION OF TAPENTADOL” (GRÜNENTHAL GMBH, priority 2011, published 2020).)
